# Data: paper PMC11365428 (The Journal of Biological Chemistry, 2024)
# Non-standard residues stand in square brackets, D forms with d. Residues, ends and D or L forms follow the SMILES beside them. pGlu = O=C1CC[C@@H](C(=O)O)N1
# Assays:
# Assay type in all cases: cell-based
# apTKRPR-A T376 = apTKRPR-A T376 (Aplysia californica, UniProt A0AAU7SSZ1, DEL377-398); experiment: IP1 accumulation assay, C-terminal truncate apTKRPR-A T376
# Method: (§1) To express putative Aplysia receptors transiently in CHO-K1 cells, the cDNAs were subcloned into the pcDNA3.1(+) or pcDNA3.1(+)-FLAG (for ELISA experiments only, see “Cell surface expression analysis by ELISA” section) expression vector. On the day before transfection, the CHO-K1 cells were passaged into 60 mm diameter tissue culture–treated dishes, and the transfection experiments were performed when the cells were grown to 70 to 90% confluence. CHO-K1 cells were transfected with the cDNA plasmid constructs using Turbofect Transfection reagent (Thermo Fisher Scientific, R0531), following the manufacturer’s instructions. In brief, 4 μg of the putative receptor plasmids [in pcDNA3.1(+) or pcDNA3.1(+)-FLAG] were mixed with 400 μl of Opti-MEM (Gibco, 11058021), followed by the addition of 15 μl of TurboFect Transfection reagent and incubated at room temperature for 15 min. […]
# (§2) The next day, transfected cells were trypsinized and reseeded in an opaque white 96-well half-area (Corning, 3688) or 384-well tissue culture–treated plates (Corning, 3570) at a density of 20,000 cells/well in F-12K and 10% FBS and incubated at 37 °C in a humidified incubator containing 5% CO2 overnight. On the third day, the activation of the putative receptors was detected by monitoring intracellular IP1 concentration using an IP-One Gq kit (Cisbio, 62IPAPEB) in Tecan Spark. […]
# apTKRPR-B = biological target: T1, apTKRPR-B (Aplysia californica, UniProt A0AAU7STS1); experiment: Cell surface expression by ELISA after ligand exposure, FLAG-apTKRPR-B; settings: 10 µM, different durations, compared with 0 min, n = 4
# T1 sequence (A0AAU7STS1 1-447): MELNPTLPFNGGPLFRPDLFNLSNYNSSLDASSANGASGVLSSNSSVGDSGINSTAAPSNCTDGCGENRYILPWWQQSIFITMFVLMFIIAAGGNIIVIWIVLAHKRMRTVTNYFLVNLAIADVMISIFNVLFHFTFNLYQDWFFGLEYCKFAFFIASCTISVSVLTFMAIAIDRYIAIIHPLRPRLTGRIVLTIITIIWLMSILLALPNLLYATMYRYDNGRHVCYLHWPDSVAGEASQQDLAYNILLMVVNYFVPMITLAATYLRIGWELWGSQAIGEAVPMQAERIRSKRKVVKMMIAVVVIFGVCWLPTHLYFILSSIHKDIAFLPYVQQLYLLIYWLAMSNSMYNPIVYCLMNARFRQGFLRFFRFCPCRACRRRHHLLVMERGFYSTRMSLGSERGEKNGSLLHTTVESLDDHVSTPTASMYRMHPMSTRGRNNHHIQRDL
# Method: (§3) Cell surface expression determination of apTKRPRs and mutant receptors, all with FLAG tags, was performed using a procedure modified from previous work ([64], [122], [123], [124]). Specifically, CHO-K1 cells were cultured in F-12K medium (Gibco, 21127-022) with 10% FBS (Genial, G11-70500) at 37 °C in a humidified incubator containing 5% CO2. When the cells were grown to 70 to 90% confluence, transfection experiments were performed (see “Cell culture and transfection” section). After 24 h, transfected cells were plated in 96-well white clear-bottom cell culture plates (Corning, 3610) at a density of 20,000 cells in 100 μl per well and incubated overnight. The following day, culture media was aspirated and cells were washed twice with 200 μl of 1× PBS (Procell, PB180327). Then, 100 μl of 1× PBS containing 5% (w/v) BSA was added to each well and incubated at room temperature. After 30 min, 100 μl of 1:10,000 anti-FLAG M2-horseradish peroxidase conjugate (Sigma-Aldrich, Cat A8592) was added to each well and incubated for 30 min at 37 °C. Cells were washed twice with 200 μl of 1× PBS and then incubated with 200 μl of TMB Chromogen Solution (Sangon Biotech, E661007) for 30 min at 37 °C in the dark. Finally, 50 μl of ELISA Stopping Solution (Sangon Biotech, E661006) was added to each well to stop the reaction. The absorbance at 450 nm was measured using a Tecan Spark microplate reader. […]
# apTKRPR-B T391 = apTKRPR-B T391 (Aplysia californica, UniProt A0AAU7STS1, DEL392-447); experiment: Cell surface expression by ELISA after ligand exposure, truncated apTKRPR-B T391; settings: 10 µM, 60 min, n = 5
# Method: as §3
# apTKRPR-B 14A = apTKRPR-B 14A (Aplysia californica, UniProt A0AAU7STS1, S392A/S396A/S399A/S407A/S415A/S421A/S426A/S434A/T393A/T411A/T412A/T422A/T424A/T435A); experiment: IP1 accumulation assay, Ser/Thr-to-Ala mutant apTKRPR-B 14A
# Sequence of apTKRPR-B 14A (A0AAU7STS1 entry or part of it with the stated changes): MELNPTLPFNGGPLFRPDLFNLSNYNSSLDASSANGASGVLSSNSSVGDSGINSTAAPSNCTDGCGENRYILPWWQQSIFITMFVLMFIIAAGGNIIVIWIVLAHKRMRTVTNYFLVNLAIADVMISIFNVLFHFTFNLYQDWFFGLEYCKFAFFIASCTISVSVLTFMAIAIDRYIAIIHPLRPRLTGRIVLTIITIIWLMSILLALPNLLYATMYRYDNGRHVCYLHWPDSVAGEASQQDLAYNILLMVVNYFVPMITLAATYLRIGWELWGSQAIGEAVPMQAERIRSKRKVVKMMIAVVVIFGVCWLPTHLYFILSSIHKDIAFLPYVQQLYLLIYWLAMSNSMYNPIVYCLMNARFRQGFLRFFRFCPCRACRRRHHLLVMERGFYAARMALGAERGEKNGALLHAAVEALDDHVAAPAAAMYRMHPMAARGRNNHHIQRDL
# Method: as §1, §2
# apTKRPR-A 5A = apTKRPR-A 5A (Aplysia californica, UniProt A0AAU7SSZ1, S377A/S394A/T379A/T387A/T393A); experiment: IP1 accumulation assay, Ser/Thr-to-Ala mutant apTKRPR-A 5A
# Sequence of apTKRPR-A 5A (A0AAU7SSZ1 entry or part of it S377A/T379A/T387A/T393A/S394A): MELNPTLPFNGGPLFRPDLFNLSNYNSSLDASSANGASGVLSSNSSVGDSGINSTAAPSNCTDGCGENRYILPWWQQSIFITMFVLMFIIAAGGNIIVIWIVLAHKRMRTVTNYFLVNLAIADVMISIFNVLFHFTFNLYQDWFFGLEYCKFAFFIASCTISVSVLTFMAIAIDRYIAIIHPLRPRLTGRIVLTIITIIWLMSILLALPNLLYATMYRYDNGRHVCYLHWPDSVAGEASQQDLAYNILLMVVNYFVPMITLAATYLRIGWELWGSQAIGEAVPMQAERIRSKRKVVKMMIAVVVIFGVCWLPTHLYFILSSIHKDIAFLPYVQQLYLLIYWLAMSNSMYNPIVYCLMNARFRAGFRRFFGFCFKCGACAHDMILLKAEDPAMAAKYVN
# Method: as §1, §2
# Sequence of apTKRPR-A T376 (A0AAU7SSZ1 entry or part of it, stated change not applied): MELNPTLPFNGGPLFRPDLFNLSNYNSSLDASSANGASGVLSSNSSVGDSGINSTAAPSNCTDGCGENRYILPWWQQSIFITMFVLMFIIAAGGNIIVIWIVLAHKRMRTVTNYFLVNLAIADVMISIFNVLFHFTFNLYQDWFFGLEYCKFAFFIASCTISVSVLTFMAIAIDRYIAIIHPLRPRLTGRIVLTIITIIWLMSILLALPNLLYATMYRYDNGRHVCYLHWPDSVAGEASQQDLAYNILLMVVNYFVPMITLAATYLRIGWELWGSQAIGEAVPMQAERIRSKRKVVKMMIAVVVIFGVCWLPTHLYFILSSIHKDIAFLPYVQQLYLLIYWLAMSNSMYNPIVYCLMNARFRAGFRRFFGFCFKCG
structure (smiles),measurement,setting,value
CC(C)C[C@H](NC(=O)[C@H](Cc1c[nH]cn1)NC(=O)[C@@H]1CCCN1C(=O)[C@@H]1CCC(=O)N1)C(=O)NCC(=O)N[C@@H](Cc1ccccc1)C(=O)N[C@@H](Cc1c[nH]cn1)C(=O)NCC(=O)N[C@@H](CO)C(=O)N[C@@H](CCCNC(=N)N)C(N)=O [apTKRP-2b] ([pGlu]PHLGFHGSR-NH2),EC50,apTKRPR-A T376,18.2 nM
same,cell surface receptor expression of apTKRPR-B after agonist exposure,apTKRPR-B,significant loss of receptor expression
same,cell surface receptor expression of T391 after agonist exposure,apTKRPR-B T391,did not change significantly
same,EC50,apTKRPR-B 14A,24.5 nM
same,EC50,apTKRPR-A 5A,58.9 nM
